These results are taken from patent US11111232B2, “Substituted cyclobutylpyridine and cyclobutylpyrimidine compounds as indoleamine 2,3-dioxygenase (IDO) inhibitors” (MERCK SHARP & DOHME CORP., priority 2017, dated 2021).

Format in all cases: cell-based
For assay [1], the target named is T1, IDO1 (Homo sapiens, UniProt P14902). Put plainly: IDO1 cellular assay in Hela cells stimulated with IFNγ. As to conditions: IFNγ 100 ng/mL, 300 uM L-tryptophan, about 48 hours, fluorescence readout. How it is done: IDO1 Cellular Assay in Hela Cells Stimulated with IFNγ
Hela cells were cultured in complete Hela culture medium (90% EMEM, 10% heat-inactivated fetal bovine serum) and expanded to about 1×10^9 cells. The cells were then collected and frozen down at 1×10^7 cells/vial in 1 mL frozen medium (90% complete Hela culture medium, 10% DMSO)
Compounds to be tested were serially diluted in ten 3-fold steps in DMSO starting from 10 mM DMSO stocks in Echo low volume plate(s).
Frozen Hela cells were thawed and transferred into Hela assay medium (99% complete Hela culture medium, 1% Pen/Strep) with 20 mL medium/vial of cells. The cells were spun down at 250 g in a table top centrifuge for 5 min and suspended in same volume of Hela assay medium. […] Sterile L-tryptophan were added to the cells with final concentration of 300 uM L-tryptophan. A small aliquot (2 mL/plate) of Hela cells were set aside and were not treated with IFNγ, to serve as the Max-E control.
Hela cells with and without IFNγ were dispensed to the respective wells of 384-well assay plates containing the compounds. The plates were incubated for about 48 hours at a 37° C., 5% CO2 incubator. Afterwards, […] of 0.5 M methyl isonipecotate in dimethyl sulfoxide were added into each well and the plates were sealed and incubated at 37° C. without CO2 overnight. The plates were centrifuged for 1 min at 200×g. The resulting fluorescence was measured in a Spectramax plate reader (Molecular Devices) with a 400 nm excitation filter and a 510 nm emission filter.
Potencies were calculated by linear least squares fit to the four parameter logistic IC50 equation.

The target of assay [2] is T1, IDO1. Put plainly: IDO1 HEK293 cellular assay. As to conditions: HEK293 cells transfected with Flag-IDO1 vector, 20-24 hours, fluorescence readout. As for the experimental part:
IDO1 HEK293 Cellular Assay
Compounds to be tested were serially diluted in ten 3-fold steps in DMSO starting from 10 mM DMSO stocks. Compound dilutions or DMSO alone were then dispensed from the dilution plate into a Greiner black 384-well assay plate (catalog #781086) using an Echo 550 acoustic liquid handler (Labcyte).
HEK293 cell pellets were resuspended to 5×10^5 cells/mL in complete HEK293 culture media (89% DMEM, 10% FBS, 1% penicillin/streptomycin). Suspended cells (2 mL) were dispensed into each well of a 6-well Corning plate (Catalog # 3516). Cells were allowed to attach and were incubated for 20 hours at 37° C. in a 5% CO2 incubator. Flag-IDO1 vector (Genscript True ORF Gold, 2 ug) in 150 uL of Opti-MEM medium was added to each well of a Corning 24 well plate (Cat # 3527) and incubated for 5 minutes at room temperature. To each well of the 24-well plate was added […] Lipofectamine 2000 (Gibco) and the plate incubated at room temperature for 20-30 minutes. To each well of attached cells in the 6-well plate, […] of the transfection mix from the 24-well plate was gently added to each well and IDO1 protein was allowed to express for 24-30 hours at 37 degrees Celsius in a 5% CO2 incubator.
Media was removed from the cells which were then washed with 2 mL Dulbecco's phosphate-buffered saline (DPBS). After removal of DPBS, 0.5 mL of TrypLE (Gibco) was added and incubated at 5 minutes until cells lift from the surface of the wells. Complete HEK293 culture media (4 mL) was added to each well and cells were collected and pooled into a conical tube. Cells were pelleted at 200×g for 5 minutes and resuspended in an equal volume of complete DMEM medium. Cells were diluted to 4×10^5 cells per mL in complete HEK293 media. L-Tryptophan was added to added to give a final concentration of […]. The diluted transfected cells […] or nontransfected cells […] were dispensed into wells of Greiner black 384-well assay plates (catalog #781086) containing previously diluted compounds. The plate is briefly mixed and centrifuged at 200×g for 10 seconds to collect cells at the bottom of the plate. Plates were covered and incubated for 20-24 hours at 37 degrees C. in a 5% CO2 incubator. Afterwards […] of 0.5 M methyl isonipecotate in dimethyl sulfoxide was added to each well, mixed, sealed, and centrifuged at 500 rpm for 10 seconds. Plates were incubated at 37 degrees in a 5% CO2 incubator overnight to develop fluoresence. The plates are allowed to cool and then centrifuged for 1 minute at 1000×g. The resulting fluoresence was measured in an Envision plate reader (Perkin Elmer) with a 400/25 nm excitation filter and an 510/20 nm emission filter.
The fluoresence intensity of each well was corrected for the background observed in wells with untransfected cells and was expressed as a fraction of the intensity observed in wells of IDO1 transfected cells and DMSO only. Potencies were calculated by linear least squares fit to the four parameter logistic IC50 equation.

Assay [3] addresses T2, TDO (Homo sapiens, UniProt P48775).
T2 construct: endogenous in cells; host or cells: SW48 cells (A2780 cells as low-TDO control)
Put plainly: TDO cellular assay in frozen SW48 cells. As to conditions: 300 uM L-tryptophan, about 48 hours, fluorescence readout. How it is done:
TDO Cellular Assay in Frozen SW48 Cells
SW48 cells were cultured in complete RPMI culture medium (90% RPMI, 10% heat-inactivated fetal bovine serum).
Compounds to be tested were serially diluted in ten 3-fold steps in DMSO starting from 10 mM DMSO stocks in Echo low volume plate(s). […] The cells were spun down at 350 g in a table top centrifuge for 5 minutes and suspended in same volume of RPMI assay medium. […] Sterile L-tryptophan (Sigma, Cat #T0254) was added to the cells with final concentration of 300 uM.
SW48 and A2780 cells were dispensed to the respective wells of 384-well assay plates containing the compounds. The plates were incubated for about 48 hours at a 37° C., 5% CO2 incubator. Afterwards, 12 μL of 0.5 M ethyl isonipecotate (Sigma Aldrich, Cat #E33505) in dimethyl sulfoxide were added into each well and the plates were sealed and incubated at 37° C. without CO2 overnight. The plates were centrifuged for 1 minute at 200×g. The resulting fluorescence was measured in a Spectramax plate reader (Molecular Devices) with a 400 nm excitation filter and a 510 nm emission filter.
The fluorescence intensity of each well was corrected for the background observed in wells with A2780 cells and was expressed as a fraction of the intensity observed in wells of SW48 cells and DMSO only. Potencies were calculated by linear least squares fit to the four parameter logistic IC50 equation.

T1 sequence (P14902 whole entry): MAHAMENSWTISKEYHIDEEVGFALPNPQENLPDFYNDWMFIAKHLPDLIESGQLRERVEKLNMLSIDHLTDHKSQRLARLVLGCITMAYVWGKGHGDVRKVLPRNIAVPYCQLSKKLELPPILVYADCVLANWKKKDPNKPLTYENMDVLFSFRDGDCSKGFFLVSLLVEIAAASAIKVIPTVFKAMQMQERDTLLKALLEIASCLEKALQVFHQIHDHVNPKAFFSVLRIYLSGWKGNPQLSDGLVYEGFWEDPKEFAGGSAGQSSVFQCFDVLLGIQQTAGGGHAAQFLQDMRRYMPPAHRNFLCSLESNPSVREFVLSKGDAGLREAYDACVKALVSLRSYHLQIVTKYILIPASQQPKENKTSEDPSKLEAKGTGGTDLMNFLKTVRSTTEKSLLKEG
T2 sequence (P48775 whole entry): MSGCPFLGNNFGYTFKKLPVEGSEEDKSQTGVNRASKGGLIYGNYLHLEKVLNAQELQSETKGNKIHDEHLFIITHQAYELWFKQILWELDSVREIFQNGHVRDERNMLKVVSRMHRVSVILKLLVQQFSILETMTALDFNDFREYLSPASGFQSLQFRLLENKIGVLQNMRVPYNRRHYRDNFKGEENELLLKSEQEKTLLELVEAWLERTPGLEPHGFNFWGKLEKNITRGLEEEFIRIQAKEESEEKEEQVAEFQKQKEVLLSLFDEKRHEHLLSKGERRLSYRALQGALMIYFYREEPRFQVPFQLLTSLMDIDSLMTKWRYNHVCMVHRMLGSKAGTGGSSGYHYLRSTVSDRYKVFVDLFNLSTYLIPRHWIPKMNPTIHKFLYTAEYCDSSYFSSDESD

Turning to `O=C(CCC1CC1)Nc1ccc(C2(C(=O)Nc3ccc(F)cc3)CCC2)cn1` [Example 18, 1-{6-[(3-cyclopropylpropanoyl)amino]pyridin-3-yl}-N-(4-fluorophenyl)cyclobutane-1-carboxamide], the results for the IC50 in assay [1], in assay [2] and in assay [3] were 29 nM, 32 nM and at least 10000 nM, respectively.

Take `O=C(CC1CC1)Nc1ccc(C2(C(=O)Nc3ccc(F)cc3)CCC2)cn1` [Example 30, 1-{6-[(cyclopropylacetyl)amino]pyridin-3-yl}-N-(4-fluorophenyl)cyclobutane-1-carboxamide]: the IC50 is 83 nM in assay [1], 70 nM in assay [2] and at least 10000 nM in assay [3].

Regarding `O=C(Nc1ccc(C2(C(=O)Nc3ccc(F)cc3)CCC2)cn1)C1CCCOC1` (stereo not drawn) [Example 22, N-(5-{1-[(4-fluorophenyl)carbamoyl]cyclobutyl}pyridin-2-yl)oxane-3-carboxamide], the figures for the IC50 in assay [1], in assay [2] and in assay [3] were 154 nM, 123 nM and at least 10000 nM, respectively.

Consider `O=C(Nc1ccc(C2(C(=O)Nc3ccc(F)cc3)CCC2)cn1)C1CCCC(F)(F)C1` (stereo not drawn) [Example 17, 3,3-difluoro-N-(5-{1-[(4-fluorophenyl)carbamoyl]cyclobutyl}pyridin-2-yl)cyclohexane-1-carboxamide], for which the IC50 was 28 nM in assay [1], 26 nM in assay [2] and at least 10000 nM in assay [3].

For `O=C(Nc1ccc(C2(C(=O)Nc3ccc(F)cc3)CCC2)cn1)C1CCOCC1` [Example 20, N-(5-{1-[(4-fluorophenyl)carbamoyl]cyclobutyl}pyridin-2-yl)oxane-4-carboxamide], the IC50 was 138 nM in assay [1], 156 nM in assay [2] and at least 10000 nM in assay [3].

Regarding `O=C(CCC(F)(F)F)Nc1ccc(C2(C(=O)Nc3ccc(F)cc3)CCC2)cn1` [Example 5, N-(4-fluorophenyl)-1-(6-(4,4,4-trifluorobutanamido)pyridin-3-yl)cyclobutane-1-carboxamide], the IC50 in assay [1] is 72 nM; in assay [2], 76 nM; in assay [3], at least 10000 nM.

`CC(C)CC(=O)Nc1ccc(C2(C(=O)Nc3ccc(F)cc3)CCC2)cn1` [Example 27, N-(4-fluorophenyl)-1-{6-[(3-methylbutanoyl)amino]pyridin-3-yl}cyclobutane-1-carboxamide]: the IC50 in assay [1] is 25 nM; in assay [2], 28 nM; in assay [3] it was at least 10000 nM.
